Experiments:
in vitro [1] = conditions: human, liver microsomes
in vitro [2] = conditions: CD-1, mouse, liver microsomes
in vitro [3] = conditions: CD-1, mouse, liver microsomes; remark: listed apart in the source
in vitro [4] = conditions: CD-1, mouse, liver microsomes; remark: listed apart in the source
in vitro [5] = conditions: human, liver microsomes; remark: listed apart in the source
in vitro [6] = conditions: CD-1, mouse, liver microsomes; remark: listed apart in the source
in vitro [7] = conditions: human, liver microsomes; remark: listed apart in the source
in vitro [8] = conditions: human, liver microsomes; remark: listed apart in the source
in vitro [9] = conditions: human, liver microsomes; remark: listed apart in the source
in vitro [10] = conditions: CD-1, mouse, liver microsomes; remark: listed apart in the source
in vitro [11] = conditions: human, liver microsomes; remark: listed apart in the source
in vitro [12] = conditions: CD-1, mouse, liver microsomes; remark: listed apart in the source

## O=C(CCc1csc(/C=C/c2ccc(F)cc2)n1)NO
In vitro [1]
  remaining at 0.25 h, 1 µM: 103%
In vitro [2]
  remaining at 0 h, 1 µM: 107%
In vitro [3]
  remaining at 0.25 h, 1 µM: 68.6%
In vitro [4]
  remaining at 0 h, 1 µM: 100%
In vitro [5]
  remaining at 0 h, 1 µM: 106%
In vitro [6]
  remaining at 0.5 h, 1 µM: 25.2%
In vitro [7]
  remaining at 0.5 h, 1 µM: 112%
In vitro [8]
  remaining at 0 h, 1 µM: 100%
In vitro [9]
  remaining at 0.5 h, 1 µM: 94.6%
In vitro [10]
  remaining at 0.5 h, 1 µM: 95.8%
In vitro [11]
  remaining at 5 min, 1 µM: 105%
In vitro [12]
  remaining at 5 min, 1 µM: 99.8%

From ChEMBL document CHEMBL4387764, “Structure-activity relationship study of thiazolyl-hydroxamate derivatives as selective histone deacetylase 6 inhibitors” (Bioorg Med Chem, 2019)
